Here are results for 29 molecules from paper PMC4050313, “Panaxadiol and Panaxatriol Derivatives as Anti-Hepatitis B Virus Inhibitors” (Natural Products and Bioprospecting, 2014).

Usually CC50 stands for the concentration that lowers cell viability or growth by half. Read a high CC50 as better tolerance by the cells. The IC50 is the point on the concentration scale where inhibition reaches its midpoint.

Series [1] deals with HepG 2.2.15 cells. Nature of the series: Cytotoxicity, modified MTT method. The following applies: 50 % cytotoxicity concentration in HepG 2.2.15 cells; means of two independent experiments. The format is cell-based. The protocol: (§1) Based on our previous description, inhibitory activity on HBV (HBsAg, HBeAg and HBV DNA) was evaluated. […] Cytotoxicity was assayed with a modified 3-(4,5-dimethylthiazole-2-yl)-2,5-diphenyltetrazolium bromide (MTT) method (Gibco Invitrogen, Carlsbad, CA, USA). The anti-HBV antigen secretion activities were determined by the enzyme linked immunosorbent assay (ELISA; Autobio Diagnostics Co., Ltd, China). A real-time PCR assay was applied to detect the inhibitory activity on HBV DNA replication.
A general note: Formazan colour is commonly taken as a measure of viable cells.

Series [2] has as its system HBeAg secretion. Put plainly: microbe, parasite or virus in culture. The format is cell-based, Hepatitis B virus. The conditions noted are these: HepG 2.2.15 cells; means of two independent experiments; read-out: HBeAg IC50. As for the experimental part: as §1
Series [3] relates to HBsAg secretion. Nature of the series: microbe, parasite or virus in culture. It is filed as cell-based, Hepatitis B virus. The following applies: for IC50: HepG 2.2.15 cells, means of two independent experiments, read-out: HBsAg IC50; for growth of inhibition on HBsAg secretion: relative to inactive compound 8. As for the experimental part: as §1
The subject of series [4] is HBV DNA replication. Put plainly: Inhibition of HBV DNA replication, real-time PCR, HepG 2.2.15 cells. The format is cell-based, Hepatitis B virus. The conditions noted are these: for IC50: HepG 2.2.15 cells, means of two independent experiments; for growth of inhibition on HBV DNA replication: relative to inactive compound 8. The protocol: as §1
A general note: Quantitative PCR measures a nucleic acid by following its amplification.

Consider `CC(=O)OC1CCC2(C)C(CCC3(C)C2CC(O)C2C(C4(C)CCCC(C)(C)O4)CCC23C)C1(C)C` (stereo not drawn) [Compound 1, 3-O-Acetly-panaxadiol], for which, in series [1], the CC50 was greater than 2060 µM.
For the molecule `CC1(C)CCCC(C)(C2CCC3(C)C2C(O)CC2C4(C)CCC(OC(=O)C5CCCC5)C(C)(C)C4CCC23C)O1` (stereo not drawn) [Compound 2, 3-O-Cyclopentanecarbonyl panaxadiol], in series [1], the cytotoxic concentration (CC50) was greater than 2140 µM. The concentration for half-maximal inhibition (IC50) is greater than 2140 µM in series [2], 1250 µM in series [3] and 515 µM in series [4].
In the case of `CC1(C)CCCC(C)(C2CCC3(C)C2C(O)CC2C4(C)CCC(OC(=O)c5ccco5)C(C)(C)C4CCC23C)O1` (stereo not drawn) [Compound 3, 3-O-(2′-Furoyl) panaxadiol], in series [1], the midpoint of cytotoxicity, the CC50, lay at 1180 µM. For the same molecule, the IC50 amounted to 1180 µM in series [2], 834 µM in series [3] and 50.3 µM in series [4].
On to `CC1(C)CCCC(C)(C2CCC3(C)C2C(O)CC2C4(C)CCC(OC(=O)c5cccs5)C(C)(C)C4CCC23C)O1` (stereo not drawn) [Compound 4, 3-O-(2′-Thenoyl) panaxadiol], for which the CC50 in series [1] is greater than 1910 µM. Also, the IC50 stood at 18.2 µM in series [2], 30.8 µM in series [3] and 16.5 µM in series [4].
In series [1], `Cc1ccsc1C(=O)OC1CCC2(C)C(CCC3(C)C2CC(O)C2C(C4(C)CCCC(C)(C)O4)CCC23C)C1(C)C` (stereo not drawn) [Compound 5, 3-O-(3′-Methyl)-thenoyl panaxadiol] gave a CC50 greater than 2020 µM. Further, the IC50 in series [2] was greater than 2020 µM; in series [3] it was greater than 2020 µM; in series [4], greater than 505 µM.
The molecule `CC1(C)CCC[C@](C)([C@H]2CC[C@]3(C)[C@@H]2[C@H](O)C[C@@H]2[C@@]4(C)CC[C@H](OC(=O)c5sccc5Cl)C(C)(C)[C@@H]4CC[C@]23C)O1` [Compound 6, 3-O-(3′-Chloro)-thenoyl panaxadiol] came in with a CC50 in series [1] greater than 1640 µM. The results for the IC50 in series [2] and in series [4] were 280 µM and 43.2 µM, respectively.
For `CC1(C)CCCC(C)(C2CCC3(C)C2C(O)CC2C4(C)CCC(OC(=O)c5cc6ccccc6s5)C(C)(C)C4CCC23C)O1` (stereo not drawn) [Compound 7, 3-O-Benzothiophene-2-carboxyl panaxadiol], the CC50 in series [1] was greater than 1690 µM.
On to `CC1(C)CCC[C@](C)([C@H]2CC[C@]3(C)[C@@H]2[C@H](O)C[C@@H]2[C@@]4(C)CC[C@H](OC(=O)c5ccccc5)C(C)(C)[C@@H]4CC[C@]23C)O1` [Compound 8, 3-O-Benzoyl panaxadiol], for which the 50% cytotoxic concentration (CC50) in series [1] is greater than 2000 µM. The IC50 in series [2] is greater than 2000 µM; in series [3] it was greater than 2000 µM; in series [4] it was 501 µM.
`CC1(C)CCCC(C)(C2CCC3(C)C2C(O)CC2C4(C)CCC(OC(=O)c5ccccc5O)C(C)(C)C4CCC23C)O1` (stereo not drawn) [Compound 9, 3-O-Salicyloyl panaxadiol] showed a CC50 in series [1] of 44.4 µM. In series [3], the IC50 worked out at 43.3 µM and the “growth of inhibition on HBsAg secretion” value amounted to 60 folds. In addition, in series [4], it took 9.02 µM to reach half-maximal inhibition (IC50) and the “growth of inhibition on HBV DNA replication” value was found to be 60 folds.
Molecule `CC1(C)CCC[C@](C)([C@H]2CC[C@]3(C)[C@@H]2[C@H](O)C[C@@H]2[C@@]4(C)CC[C@H](OC(=O)c5cc(O)c(O)c(O)c5)C(C)(C)[C@@H]4CC[C@]23C)O1` [Compound 10, 3-O-Galloyl panaxadiol] had a half-maximal cytotoxic concentration (CC50) in series [1] of 25.9 µM. The IC50 in series [2] is greater than 1440 µM. Moreover, in series [3], the IC50 was 45.6 µM and the “growth of inhibition on HBsAg secretion” value came out at 60 folds. In addition, in series [4], the 50% inhibitory concentration (IC50) amounted to 7.27 µM and the “growth of inhibition on HBV DNA replication” value turned out to be 60 folds.
The molecule `CC1(C)CCCC(C)(C2CCC3(C)C2C(O)CC2C4(C)CCC(OC(=O)c5cccnc5)C(C)(C)C4CCC23C)O1` (stereo not drawn) [Compound 11, 3-O-Nicotinoyl panaxadiol] showed a CC50 in series [1] of 1150 µM. Besides, the half-maximal inhibitory concentration (IC50) in series [2] came to 1150 µM; in series [3], 1150 µM; in series [4] it was 117 µM.
In series [1], `CCCCC(=O)O[C@H]1CC[C@]2(C)[C@H]3C[C@@H](O)[C@@H]4[C@@H]([C@@]5(C)CCCC(C)(C)O5)CC[C@@]4(C)[C@]3(C)CC[C@H]2C1(C)C` [Compound 12, 3-O-Valeryl panaxadiol] displayed a half-maximal cytotoxic concentration (CC50) greater than 1580 µM. Further, in series [4], the half-maximal inhibitory concentration (IC50) is greater than 1580 µM.
Consider `CCOCC(=O)O[C@H]1CC[C@]2(C)[C@H]3C[C@@H](O)[C@@H]4[C@@H]([C@@]5(C)CCCC(C)(C)O5)CC[C@@]4(C)[C@]3(C)CC[C@H]2C1(C)C` [Compound 13, 3-O-2′-Ethyoxyl-acetyl panaxadiol], for which, in series [1], the CC50 was 1490 µM. The figures for the half-maximal inhibitory concentration (IC50) in series [2], in series [3] and in series [4] were greater than 2360 µM, 589 µM and greater than 591 µM, respectively.
In the same order, the values of `CC1(C)CCCC(C)(C2CCC3(C)C2C(O)CC2C4(C)CCC(OC(=O)CCC(=O)O)C(C)(C)C4CCC23C)O1` (stereo not drawn) [Compound 14, 3-O-Succinyl panaxadiol] are 179 µM, 169 µM, 199 µM and 16.7 µM.
In the same order, the values of `CC1(C)CCCC(C)(C2CCC3(C)C2C(O)CC2C4(C)CCC(OC(=O)CCCC(=O)O)C(C)(C)C4CCC23C)O1` (stereo not drawn) [Compound 15, 3-O-Glutaryl panaxadiol] are 86.6 µM, 101 µM, 53.8 µM and 28.2 µM.
The like results for `CC1(C)CCCC(C)(C2CCC3(C)C2C(O)CC2C4(C)CCC(OC(=O)COCC(=O)O)C(C)(C)C4CCC23C)O1` (stereo not drawn) [Compound 16, 3-O-Diglycolyl panaxadiol] were, in that order, greater than 1700 µM, 901 µM, greater than 1700 µM and 51.9 µM.
Take `CC(CC(=O)O)CC(=O)O[C@H]1CC[C@]2(C)[C@H]3C[C@@H](O)[C@@H]4[C@@H]([C@@]5(C)CCCC(C)(C)O5)CC[C@@]4(C)[C@]3(C)CC[C@H]2C1(C)C` (stereo partly drawn) [Compound 17, 3-O-(3′-Methyl) diglutaryl panaxadiol]: the cytotoxic concentration (CC50) in series [1] came out at 934 µM. Besides, the half-inhibitory concentration (IC50) in series [4] was 86.3 µM.
As to `CC(C)(CC(=O)O)CC(=O)O[C@H]1CC[C@]2(C)[C@H]3C[C@@H](O)[C@@H]4[C@@H]([C@@]5(C)CCCC(C)(C)O5)CC[C@@]4(C)[C@]3(C)CC[C@H]2C1(C)C` [Compound 18, 3-O-(3′,3′-Dimethyl) glutaryl panaxadiol], the midpoint of cytotoxicity in series [1], the CC50, lay at 314 µM. Also, the concentration for half-maximal inhibition (IC50) in series [3] came to 933 µM; in series [4] it was 124 µM.
Turning to `CC1(C)CCCC(C)(C2CCC3(C)C2C(O)CC2C4(C)CCC(OC(=O)CC5(CC(=O)O)CCCC5)C(C)(C)C4CCC23C)O1` (stereo not drawn) [Compound 19, 3-O-(3′,3′-tetramethylene)diglutaryl panaxadiol], in series [1], the half-maximal cytotoxic concentration (CC50) is greater than 1730 µM. Further, the IC50 in series [2] is greater than 1730 µM; in series [3], greater than 1730 µM; in series [4] it was greater than 432 µM.
Molecule `CC(=O)OC1CC2(C)C(CC(O)C3C(C4(C)CCCC(C)(C)O4)CCC32C)C2(C)CCC(OC(C)=O)C(C)(C)C12` (stereo not drawn) [Compound 20, 3,6-O-Diacetyl-panaxatriol] showed a CC50 in series [1] greater than 2100 µM. The half-inhibitory concentration (IC50) in series [2] was greater than 2100 µM; in series [3] it was greater than 2100 µM; in series [4], 545 µM.
With `CC1(C)CCCC(C)(C2CCC3(C)C2C(O)CC2C4(C)CCC(OC(=O)CCC(=O)O)C(C)(C)C4C(OC(=O)CCC(=O)O)CC23C)O1` (stereo not drawn) [Compound 21, 3,6-O-Disuccinyl panaxatriol], the 50% cytotoxic concentration (CC50) in series [1] is greater than 1940 µM. The values for the IC50 in series [2], in series [3] and in series [4] were greater than 1940 µM, greater than 1940 µM and greater than 485 µM, respectively.
For `CC1(C)CCCC(C)(C2CCC3(C)C2C(O)CC2C4(C)CCC(OC(=O)c5ccco5)C(C)(C)C4C(OC(=O)c4ccco4)CC23C)O1` (stereo not drawn) [Compound 22, 3,6-O-Di(2′-furoyl)-panaxatriol], it took 530 µM to reach half-maximal cytotoxicity in series [1] (CC50). Also, the values for the concentration for half-maximal inhibition (IC50) in series [2], in series [3] and in series [4] were greater than 1280 µM, greater than 1280 µM and greater than 320 µM, respectively.
Take `CC1(C)CCCC(C)(C2CCC3(C)C2C(O)CC2C4(C)CCC(OC(=O)c5cccs5)C(C)(C)C4C(OC(=O)c4cccs4)CC23C)O1` (stereo not drawn) [Compound 23, 3,6-O-Di(2′-thenoyl)-panaxatriol]: the CC50 in series [1] is greater than 2090 µM. This molecule returned a half-inhibitory concentration (IC50) in series [4] greater than 2090 µM.
In the case of `CC1(C)CCCC(C)(C2CCC3(C)C2C(O)CC2C4(C)CCC(OC(=O)c5cccnc5)C(C)(C)C4C(OC(=O)c4cccnc4)CC23C)O1` (stereo not drawn) [Compound 24, 3,6-O-Dinicotinoyl-panaxatriol], the CC50 in series [1] worked out at 1650 µM. Moreover, the results for the IC50 in series [2], in series [3] and in series [4] were 1070 µM, 1650 µM and 412 µM, respectively.
Consider `COCC(=O)OC1CC2(C)C(CC(O)C3C(C4(C)CCCC(C)(C)O4)CCC32C)C2(C)CCC(OC(=O)COC)C(C)(C)C12` (stereo not drawn) [Compound 25, 3,6-O-Di(2′-methoxyl)acetoxyl-panaxatriol], for which the CC50 in series [1] is greater than 1500 µM. For the same molecule, the half-inhibitory concentration (IC50) was 974 µM in series [2], greater than 1500 µM in series [3] and greater than 375 µM in series [4].
As for `CC(=O)OC1CCC2(C)C(CCC3(C)C2CC(=O)C2C(C4(C)CCCC(C)(C)O4)CCC23C)C1(C)C` [Compound 26, (20R)-20,25-Epoxy-3-O-acetoyl-dammaran-12-dione], the cytotoxic concentration (CC50) in series [1] was greater than 2280 µM.
In series [1], `CC1(C)CCCC(C)(C2CCC3(C)C2C(=O)CC2C4(C)CCC(OC(=O)c5cccs5)C(C)(C)C4CCC23C)O1` [Compound 27, (20R)-20,25-Epoxy-3-O-(2′-thenoyl)-dammaran-12-dione] returned a CC50 greater than 2160 µM.
Regarding `CC1(C)CCCC(C)(C2CCC3(C)C2C(=O)CC2C4(C)CCC(OC(=O)CCC(=O)O)C(C)(C)C4CCC23C)O1` [Compound 28, (20R)-20,25-Epoxy-3-O-succinyl-dammaran-12-dione], the half-maximal cytotoxic concentration (CC50) in series [1] is greater than 1940 µM. Further, the IC50 in series [2] was greater than 1940 µM; in series [3] it was greater than 1940 µM; in series [4], greater than 485 µM.
Molecule `O=C(O)c1cccs1` [TA, thiophenezoic acid, reference compound] returned a half-inhibitory concentration (IC50) in series [4] of 1770 µM.
